# Measurements as given in PMC4032624 (Molecular cell, 2013).
# Legend:
# γH2Ax = γH2Ax level by Western blot in U2OS cells; format: cell-based; settings: UNC0638 with etoposide
# G9a/GLC = assay: H3K9me2 level in U2OS cells; format: cell-based; settings: incubation with inhibitor vs solvent DMSO
# pT2609 and γH2Ax foci = assay: Confocal immunofluorescence of pT2609-DNA-PKcs and γH2Ax foci in U2OS cells; settings: UNC0638 together with ETO, Pearson correlation coefficient, n=5
smiles,measurement,setting,value
COc1cc2c(NC3CCN(C(C)C)CC3)nc(C3CCCCC3)nc2cc1OCCCN1CCCC1 [UNC0638],effect on etoposide-induced γH2Ax pattern,γH2Ax,not affected
same,H3K9me2 level,G9a/GLC,decreased
same,colocalization pattern of γH2Ax and pT2609 foci,pT2609 and γH2Ax foci,did not significantly alter
